According to patent US9120749B2, “Quinoline derivatives and MELK inhibitors containing the same” (ONCOTHERAPY SCIENCE, INC., priority 2010, dated 2015):
Read-outs that look alike come from different tables or passages of the source.

How the values were obtained:
[1] = biological target: MELK (Homo sapiens, UniProt Q14680); assay: Kinase assay: MELK activity, phosphorylation of FITC-labeled histone H3 peptide measured by IMAP fluorescence polarization; assay type: biochemical
In short: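 Polarization of fluorescence served as the signal for MELK turnover of FITC-conjugated histone H3 peptide. Binding solution quenched each reaction, and plates stood 0.5 hour at room temperature before reading.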

[2] = test system: T47D cells; assay: Cell-based assay: anti-proliferative activity, Cell Counting Kit-8, 72 hours (T47D); details: Homo sapiens, T47D, 72 h
In short: (§1)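 Target-specific cytotoxicity: seeded cells treated with MELK inhibitor candidates for 72 h, proliferation quantified via CCK-8, IC50 fitted.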

[3] = test system: A549 cells; assay: Cell-based assay: anti-proliferative activity, Cell Counting Kit-8, 72 hours (A549); details: Homo sapiens, A549, 72 h, 72 hours
In short: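 A549 cells seeded in 96-well plates and exposed to candidate inhibitors for 72 hours. Growth measured with Cell Counting Kit-8; IC50 values calculated from the dose response.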

[4] = test system: HT-1197 cells; assay: Cell-based assay: anti-proliferative activity, Cell Counting Kit-8, 72 hours (HT-1197, negative control without MELK expression); details: Homo sapiens, HT1197, 72 h, HT1197 cells (negative control), 72 hours
In short: as §1

[5] = test system: DU4475 cells; assay: Cell-based assay: anti-proliferative activity, Cell Counting Kit-8, 72 hours (DU4475); details: Homo sapiens, DU-4475, 72 h
[6] = read-out: IC50 (μM) (kinase assay)

Sequence of MELK (Q14680 whole entry, looked up): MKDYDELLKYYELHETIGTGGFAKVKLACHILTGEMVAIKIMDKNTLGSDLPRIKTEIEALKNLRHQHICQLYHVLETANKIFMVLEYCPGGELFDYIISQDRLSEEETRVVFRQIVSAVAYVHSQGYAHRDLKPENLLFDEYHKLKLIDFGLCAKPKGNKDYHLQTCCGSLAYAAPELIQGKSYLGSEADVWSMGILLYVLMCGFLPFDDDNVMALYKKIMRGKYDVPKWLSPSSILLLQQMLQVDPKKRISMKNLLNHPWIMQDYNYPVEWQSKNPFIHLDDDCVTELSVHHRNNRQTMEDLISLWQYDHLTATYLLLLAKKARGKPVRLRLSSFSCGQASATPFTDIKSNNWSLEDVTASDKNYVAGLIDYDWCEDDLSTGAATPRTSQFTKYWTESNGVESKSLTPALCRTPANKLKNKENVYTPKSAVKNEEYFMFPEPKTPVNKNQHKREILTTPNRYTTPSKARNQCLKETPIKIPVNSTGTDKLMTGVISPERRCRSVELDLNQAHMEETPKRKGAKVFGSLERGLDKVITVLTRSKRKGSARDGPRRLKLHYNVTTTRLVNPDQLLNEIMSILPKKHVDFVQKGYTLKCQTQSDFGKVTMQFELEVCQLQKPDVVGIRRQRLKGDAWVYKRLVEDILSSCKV

SMILES | IC50 [1, 6] | IC50 [2] | IC50 [3] | IC50 [4] | IC50 [5] | IC50 [1]
COc1cc(-c2ccc3ncc(C(=O)C4CC4)c(Nc4ccc(N5CCCC(N)C5)nc4)c3c2)cc(Cl)c1O (stereo not shown) [Example 554, (4-(6-(3-aminopiperidin-1-yl)pyridin-3-ylamino)-6-(3-chloro-4-hydroxy-5-methoxyphenyl)quinolin-3-yl)(cyclopropyl)methanone] | 0.0031 µM | 0.068 µM | 0.08 µM | 1.9 µM | 0.025 µM | –
CCCC(=O)c1cnc2ccc(-c3cc(Cl)c(O)c(OC)c3)cc2c1N[C@H]1CC[C@H](N)CC1 [Example 529, 1-(4-((trans-4-aminocyclohexyl)amino)-6-(3-chloro-4-hydroxy-5-methoxyphenyl)quinolin-3-yl)butan-1-one] | 0.0038 µM | 0.081 µM | 0.15 µM | 1.5 µM | 0.076 µM | –
CCCC(=O)c1cnc2ccc(-c3cc(F)c(O)c(Cl)c3)cc2c1N[C@H]1CC[C@H](CN(C)C)CC1 [Example 597, 1-{6-(3-Chloro-5-fluoro-4-hydroxyphenyl)-4-[trans-4-((dimethylamino)methyl)cyclohexylamino]quinolin-3-yl}butan-1-one] | 0.0073 µM | 0.11 µM | 0.16 µM | 1.1 µM | 0.083 µM | –
COc1cc(-c2ccc3ncc(C(=O)C4CC4)c(N4CCC(C5CCNCC5)CC4)c3c2)cc(Cl)c1O [Example 595, (4-(4,4′-bipiperidin-1-yl)-6-(3-chloro-4-hydroxy-5-methoxyphenyl)quinolin-3-yl)(cyclopropyl)methanone] | 0.0042 µM | 0.41 µM | 0.57 µM | 3.4 µM | 0.64 µM | –
O=C(c1cnc2ccc(-c3cc(Cl)c(O)c(Cl)c3)cc2c1N[C@H]1C[C@H]2CC[C@@H](C1)N2)C1CC1 [Example 580, (4-((1R,3r,5S)-8-azabicyclo[3.2.1]octan-3-ylamino)-6-(3,5-dichloro-4-hydroxyphenyl)quinolin-3-yl)(cyclopropyl)methanone] | 0.0045 µM | 0.25 µM | 0.69 µM | 4.1 µM | 0.12 µM | –
COc1cc(-c2ccc3ncc(C(C)=O)c(Nc4ccc(C(N)=O)cc4)c3c2)cc(Cl)c1O [Example 544, 4-(3-acetyl-6-(3-chloro-4-hydroxy-5-methoxyphenyl)quinolin-4-ylamino)benzamide] | 0.018 µM | 0.17 µM | 0.47 µM | 2.2 µM | 0.2 µM | –
CN[C@H]1CC[C@H](Nc2c(C(=O)C3CC3)cnc3ccc(-c4cc(Cl)c(O)c(Cl)c4)cc23)CC1 [Example 510, Cyclopropyl{6-(3,5-dichloro-4-hydroxyphenyl)-4-[trans-4-(methylamino)cyclohexylamino]quinolin-3-yl}methanone] | 0.0019 µM | 0.054 µM | 0.12 µM | 1 µM | 0.018 µM | –
Nc1ccc(Nc2c(C(=O)C3CC3)cnc3ccc(-c4cc(F)c(O)c(Cl)c4)cc23)cn1 [Example 591, (4-(6-aminopyridin-3-ylamino)-6-(3-chloro-5-fluoro-4-hydroxyphenyl)quinolin-3-yl)(cyclopropyl)methanone] | 0.032 µM | 0.26 µM | 0.36 µM | 1.4 µM | 0.12 µM | –
NC1CCCN(c2ccc(Nc3c(C(=O)C4CC4)cnc4ccc(-c5cc(Cl)c(O)c(Cl)c5)cc34)cn2)C1 (stereo not shown) [Example 556, (4-(6-(3-aminopiperidin-1-yl)pyridin-3-ylamino)-6-(3,5-dichloro-4-hydroxyphenyl)quinolin-3-yl)(cyclopropyl)methanone] | 0.0044 µM | 0.03 µM | 0.023 µM | 0.96 µM | 0.016 µM | –
COc1cc(-c2ccc3ncc(C(=O)C4CC4)c(Nc4ccc(CCN(C)C)cc4)c3c2)cc(Cl)c1O [Example 612, (6-(3-chloro-4-hydroxy-5-methoxyphenyl)-4-(4-(2-(dimethylamino)ethyl)phenylamino)quinolin-3-yl)(cyclopropyl)methanone] | 0.0055 µM | 0.84 µM | 0.72 µM | 4.7 µM | 0.4 µM | –
CCCC(=O)c1cnc2ccc(-c3cc(F)c(O)c(Cl)c3)cc2c1N[C@H]1CC[C@H](N)CC1 [Example 532, 1-(4-((trans-4-aminocyclohexyl)amino)-6-(3-chloro-5-fluoro-4-hydroxyphenyl)quinolin-3-yl)butan-1-one] | 0.017 µM | 0.046 µM | 0.49 µM | 2.9 µM | 0.03 µM | –
O=C(c1cnc2ccc(-c3ccc(O)c(Cl)c3)cc2c1Nc1cnn(C2CCNCC2)c1)C1CC1 [Example 519, (6-(3-chloro-4-hydroxyphenyl)-4-((1-(piperidin-4-yl)-1H-pyrazol-4-yl)amino)quinolin-3-yl)(cyclopropyl)methanone] | 0.003 µM | 0.12 µM | 0.14 µM | 1.6 µM | 0.1 µM | –
COc1cc(-c2ccc3ncc(C(=O)C4CC4)c(Nc4ccc(C(N)=O)cc4)c3c2)cc(Cl)c1O [Example 546, 4-(6-(3-chloro-4-hydroxy-5-methoxyphenyl)-3-(cyclopropanecarbonyl)quinolin-4-ylamino)benzamide] | 0.04 µM | 1.1 µM | 1 µM | 12 µM | 1 µM | –
NC1CCN(c2ncc(Nc3c(C(=O)C4CC4)cnc4ccc(-c5cc(Cl)c(O)c(Cl)c5)cc34)cn2)CC1 [Example 566, (4-(2-(4-aminopiperidin-1-yl)pyrimidin-5-ylamino)-6-(3,5-dichloro-4-hydroxyphenyl)quinolin-3-yl)(cyclopropyl)methanone] | 0.003 µM | 0.11 µM | 0.4 µM | 2.6 µM | 0.13 µM | –
COc1cc(-c2ccc3ncc(C(=O)C4CC4)c(N[C@H]4CC[C@H](CN5CCCC5)CC4)c3c2)cc(Cl)c1O [Example 586] | 0.0028 µM | 0.38 µM | 0.2 µM | 3 µM | 0.19 µM | –
O=C(c1cnc2cc(F)c(-c3cc(Cl)c(O)c(Cl)c3)cc2c1Nc1ccc(N2CCNCC2)nc1)C1CC1 [Example 559, cyclopropyl(6-(3,5-dichloro-4-hydroxyphenyl)-7-fluoro-4-(6-(piperazin-1-yl)pyridin-3-ylamino)quinolin-3-yl)methanone] | 0.01 µM | 0.46 µM | 0.59 µM | 3.2 µM | 0.35 µM | –
COc1cc(-c2ccc3ncc(C(=O)C4CC4)c(Nc4cnc(N5CCC(N)C5)nc4)c3c2)cc(Cl)c1O (stereo not shown) [Example 582, (4-(2-(3-aminopyrrolidin-1-yl)pyrimidin-5-ylamino)-6-(3-chloro-4-hydroxy-5-methoxyphenyl)quinolin-3-yl)(cyclopropyl)methanone] | 0.0031 µM | 0.052 µM | 0.097 µM | 1.1 µM | 0.064 µM | –
O=C(c1cnc2ccc(-c3cc(Cl)c(O)c(Cl)c3)cc2c1N[C@H]1CC[C@H](CN2CCC(O)C2)CC1)C1CC1 (stereo partly drawn) [Example 600, cyclopropyl(6-(3,5-dichloro-4-hydroxyphenyl)-4-((trans-4-((3-hydroxypyrrolidin-1-yl)methyl)cyclohexyl)amino)quinolin-3-yl)methanone] | 0.00073 µM | 0.078 µM | 0.12 µM | 0.76 µM | 0.029 µM | –
CCCC(=O)c1cnc2ccc(-c3cnc(C#N)nc3)cc2c1Nc1ccc(CN(C)C)cc1 [Example 539, 5-(3-butyryl-4-(4-((dimethylamino)methyl)phenylamino)quinolin-6-yl)pyrimidine-2-carbonitrile] | 0.0038 µM | 0.37 µM | 1.6 µM | 1.6 µM | 1.5 µM | –
NC1CCN(c2ccc(Nc3c(C(=O)C4CC4)cnc4ccc(-c5cc(F)c(O)c(Cl)c5)cc34)cn2)CC1 [Example 557, (4-(6-(4-aminopiperidin-1-yl)pyridin-3-ylamino)-6-(3-chloro-5-fluoro-4-hydroxyphenyl)quinolin-3-yl)(cyclopropyl)methanone] | – | 0.11 µM | 0.52 µM | 3.1 µM | 0.18 µM | 0.0056 µM
CN1CCC(n2cc(Nc3c(C(=O)C4CC4)cnc4ccc(-c5cc(F)c(O)c(Cl)c5)cc34)cn2)CC1 [Example 592, (6-(3-Chloro-5-fluoro-4-hydroxyphenyl)-4-(1-(1-methylpiperidin-4-yl)-1H-pyrazol-4-ylamino)quinolin-3-yl)(cyclopropyl)methanone] | 0.0015 µM | 0.24 µM | 0.13 µM | 2.8 µM | 0.068 µM | –
COc1cc(-c2ccc3ncc(C(=O)C(C)C)c(N[C@H]4CC[C@H](CN(C)C)CC4)c3c2)cc(Cl)c1O [Example 606] | 0.0063 µM | 0.65 µM | 0.65 µM | 1.1 µM | 0.34 µM | –
COc1cc(-c2ccc3ncc(C(=O)C4CC4)c(N[C@H]4CC[C@@H](CN(C)CC#N)CC4)c3c2)cc(Cl)c1O [Example 518, 2-((((1R,4R)-4-(6-(3-chloro-4-hydroxy-5-methoxyphenyl)-3-(cyclopropanecarbonyl)quinolin-4-ylamino)cyclohexyl)methyl)(methyl)amino)acetonitrile] | 0.013 µM | 0.16 µM | 0.17 µM | 3.4 µM | 0.078 µM | –
